According to patent US20240239801A1, “PYRIMIDO[5,4,D]PYRIMIDINE COMPOUNDS, COMPOSITIONS COMPRISING THEM AND USES THEREOF” (Université de Montréal, priority 2021, published 2024):

How the values were obtained:
[1] = tested on: RAS-mutant cancer cell lines pERK; assay: Phospho-ERK inhibition in a panel of cancer cell lines (AlphaLISA); type: cell-based, human
Method: All cancer cell lines (A375, A101D, A2058, RKO, HT29 SK-MEL 30, IPC298, HepG2, HCT-116, Lovo, SW620, SW480, NCI-H358, NCI-H2122, Calu-6, NCIH2087, NCIH1755, NCIH1666 and Mewo) were obtained from ATCC and cultured in RPMI-1640 medium (Gibco) supplemented with 5% heat inactivated fetal bovine serum (FBS, Wisent) at 37° C. under 5% CO2. Cells were maintained in T175 flasks (Greiner). They were passaged by removing the culture medium, washing once in 10 mL of room temperature Phosphate Buffered Saline (PBS; Wisent) and incubating at 37° C. with 2 mL of 0.05% Trypsin (Thermo-Fisher). […]
After treatment, media was removed, and cells were lysed in 50 μL of 1× AlphaScreen Ultra Lysis Buffer (Perkin Elmer). […] After completion of the reactions, the signals were recorded on an EnVision plate reader (Perkin Elmer) using built in AlphaLISA® settings.
The effect of each compound dilution on the pERK signal was expressed in % inhibition and calculated as follows. […]
The ability of each compound to inhibit pERK signal was expressed as an IC50 value obtained by plotting the inhibition values for each data point of a dilution series and fitting the obtained curves using a log(agonist) versus response−variable slope (four parameters) function using GraphPadPrism (V7.0). […]

[2] = tested on: RAS-mutant HCT-116 cells pERK/pMEK; assay: Immunoblot analysis of pERK and pMEK; type: cell-based, human; details: FIG. 2, 1 h treatment
Method: For immunoblotting analysis, 500,000 HCT-116 cells were plated in 1 mL of complete RPMI-1640 growth medium in 24-well flat-bottomed transparent dishes (Costar). Cells were maintained overnight at 37° C. under 5% CO2 before treatment with compounds' dilution series for one hour. Cells were then washed once in PBS and lized in 250 μL of Igepal Lysis Buffer (50 mM Tris-HCl pH 7.5, 150 mM NaCl, 1% Igepal-CA630, 1 mM EDTA, 10% Glycerol) supplemented with Leupeptin, Aprotinin, PMSF, phosphatase inhibitor cocktail (Sigma) and Na3VO4 at 4° C. for 15 minutes with gentle rocking. Cell extracts were then cleared by centrifugation at 20,000 g at 4° C. for 10 minutes. Cleared lysates were then transferred on ice in fresh tubes and then boiled in sample loading buffer (100 mM Tris-HCl pH 6.8, 4% SDS, 0.2% bromophenol blue, 20% glycerol, 200 mM β-mercaptoethanol) for 5 minutes prior to fractionation by SDS-PAGE and transfer to nitrocellulose membranes (PALL). […]

YMIN of pERK IC50 curves ([1]; in 11 of the 13 RAS-mutant cell lines tested) [%]	Compound	paradoxical induction of the pathway (pERK) ([1]; RAS-mutant cell lines of Table D)	paradoxical induction of pERK or pMEK signaling (immunoblot) [2]
< −30	Cc1ccc2c(Nc3cccc(Cl)c3F)nccc2c1NC(=O)c1csc2c(N)ncnc12 [Belvarafenib, reference compound]	mild to strong induction of the pathway	
	Nc1cccc2c1ncn2-c1ncc2ncnc(Nc3c(F)ccc(NS(=O)(=O)c4cccc(Cl)c4Cl)c3F)c2n1 [Example 80]		does not induce paradoxical induction of pERK or pMEK signaling
